Assay: xn = mol fraction of the nth substance listed
Conditions: Liquid; for viscosity: Oscillating disk viscometry; for mass density: Vibrating tube method

CCCCn1cc[n+](C)c1.F[B-](F)(F)F [1-butyl-3-methylimidazolium tetrafluoroborate] + O
Conditions	mass density, x1 = 0.01 [kg/m3]	mass density, x1 = 0.0227 [kg/m3]	mass density, x1 = 0.0392 [kg/m3]	mass density, x1 = 0.0616 [kg/m3]	mass density, x1 = 0.0938 [kg/m3]	viscosity, x1 = 0.01 [mPa·s]	viscosity, x1 = 0.0227 [mPa·s]	viscosity, x1 = 0.0392 [mPa·s]	viscosity, x1 = 0.0616 [mPa·s]	viscosity, x1 = 0.0938 [mPa·s]
293.15 K, 101 kPa	–	–	–	–	–	1.07	1.35	1.84	2.28	3.04
293.15 K, 101.3 kPa	1018.9	1038.1	1060.4	1079.5	1103.7	–	–	–	–	–
298.15 K, 101 kPa	–	–	–	–	–	0.95	1.19	1.6	1.98	2.69
298.15 K, 101.3 kPa	1017.1	1036	1058	1076.7	1100.6	–	–	–	–	–
303.15 K, 101 kPa	–	–	–	–	–	0.84	1.05	1.4	1.75	2.34
303.15 K, 101.3 kPa	1015.2	1033.5	1055.3	1073.6	1097.2	–	–	–	–	–
308.15 K, 101 kPa	–	–	–	–	–	0.76	0.95	1.25	1.56	2.06
308.15 K, 101.3 kPa	1013.2	1031.3	1052.6	1070.7	1093.9	–	–	–	–	–
313.15 K, 101 kPa	–	–	–	–	–	0.69	0.86	1.13	1.4	1.84
313.15 K, 101.3 kPa	1010.9	1028.6	1049.8	1067.5	1090.5	–	–	–	–	–
318.15 K, 101 kPa	–	–	–	–	–	0.64	0.79	1.02	1.27	1.66
318.15 K, 101.3 kPa	1008.6	1025.9	1046.9	1064.3	1087.4	–	–	–	–	–
323.15 K, 101 kPa	–	–	–	–	–	0.59	0.74	0.94	1.16	1.48
323.15 K, 101.3 kPa	1006.1	1023.4	1044	1061.2	1084.1	–	–	–	–	–
328.15 K, 101 kPa	–	–	–	–	–	0.55	0.69	0.88	1.07	1.31
328.15 K, 101.3 kPa	1001.8	1019.8	1041.4	1058.3	1080.9	–	–	–	–	–
333.15 K, 101 kPa	–	–	–	–	–	0.53	0.62	0.82	0.99	1.26
333.15 K, 101.3 kPa	999.2	1017.6	1040.6	1057.4	1079.9	–	–	–	–	–

NCCO [2-aminoethan-1-ol] + O
101.3 kPa
Conditions	mass density, x1 = 0.0394 [kg/m3]	mass density, x1 = 0.087 [kg/m3]	mass density, x1 = 0.1456 [kg/m3]	mass density, x1 = 0.2197 [kg/m3]	viscosity, x1 = 0.0394 [mPa·s]	viscosity, x1 = 0.087 [mPa·s]	viscosity, x1 = 0.1456 [mPa·s]	viscosity, x1 = 0.2197 [mPa·s]
293.15 K	1005.3	1011.8	1018.9	1025.7	1.19	2.1	3.06	5.58
298.15 K	1003.8	1009.9	1016.3	1022.7	1.06	1.71	2.69	4.67
303.15 K	1002.1	1007.7	1013.7	1019.7	0.94	1.47	2.29	3.91
308.15 K	1000.3	1005.6	1011.2	1016.8	0.85	1.3	1.91	3.28
313.15 K	998.2	1003.2	1008.5	1013.6	0.76	1.15	1.69	2.77
318.15 K	996	1000.7	1005.7	1010.5	0.69	1.03	1.5	2.39
323.15 K	993.8	998.2	1002.8	1007.3	0.63	0.93	1.33	2.11
328.15 K	988.9	995.8	1000.1	1004.4	0.58	0.85	1.17	1.85
333.15 K	987.2	995.1	999.3	1003.2	0.54	0.79	1.05	1.65

— the NIST ThermoML archive (doi:10.1021/acs.jced.8b00070)
